The test system of assay [1] is myo-inositol dehydrogenase. In words: Substrate specificity of myo-inositol dehydrogenase. In kind it is biochemical, Bacillus sp. No. 3. The settings on record: myo-inositol = 100%. On the procedure:
1. Substrate specificity:
The above reaction mixture (1 ml) is incubated in a small test tube at 37° C. for 5 mins. Diluted enzyme solution (0.02 ml) is added and the mixture is stirred to initiate the reaction. After exactly 10 mins., 0.1N HCl (2.0 ml) was added and the mixture is stirred to stop the reaction. Absorption at 550 nm (A550 nm) is measured to obtain absorption A1. The assay was repeated using the above reaction mixture except that myo-inositol was not included. The mixture is also treated in the same manner as described above and its absorption Ao was measured.
(3) Calculation of enzyme activity: [formula] wherein

Assay [2] relates to myo-inositol dehydrogenase. In words: Km-value measurement for substrate and coenzymes. In kind it is biochemical, Bacillus sp. No. 3. How it is done: Km-value for myo-inositol is measured at various concentrations of myo-inositol in a reaction mixture of:
Further in the reaction mixture, 1 mM NAD is replaced by 1 mM thio-NAD (Sigma Co. ) and the Km-value for myo-inositol is measured. The result is Km-value: 10.0 mM (myo-inositol).
Km-value in the reaction of NADP and myo-inositol are measured. The results are as follows:
Km-values in the reaction of the thio-NADP and myo-inositol are as follows: […]

Assay [3] relates to myo-inositol dehydrogenase. In words: Relative activity with coenzyme thio-NAD compared to NAD. In kind it is biochemical, Bacillus sp. No. 3.
Assay [4] relates to myo-inositol dehydrogenase. Conditions: enzyme produced by yeast Cryptococcus melibiosum, cited from earlier work.

Where “and” joins values, the source holds several entries; their conditions need not be identical. Identical values can stand only once. Like-named read-outs stand apart in the source and are kept apart here.

Regarding `OC[C@H]1O[C@H](O[C@H]2[C@H](O)[C@@H](O)[C@H](O)O[C@@H]2CO)[C@H](O)[C@@H](O)[C@@H]1O` [maltose], the “Substrate specificity (relative activity)” value in assay [1] amounted to 0%.

As a reminder, the Km is the concentration of substrate that gives half-maximal velocity. In the case of `NC(=S)c1ccc[n+]([C@@H]2O[C@H](COP(=O)([O-])OP(=O)(O)OC[C@H]3O[C@@H](n4cnc5c(N)ncnc54)[C@H](O)[C@@H]3O)[C@@H](O)[C@H]2O)c1` [thio-NAD, thionicotinamide adenine dinucleotide], the Km in assay [2] (150 mM myo-inositol, read-out: Km-value (thio-NAD)) stood at 170 µM. For the same compound, in assay [3], the “Relative activity when coenzyme thio-NAD is used, as compared to NAD” value is 10-15%.

As to `O=C(CO)[C@@H](O)[C@H](O)[C@H](O)CO` [fructose], the “Substrate specificity (relative activity)” value in assay [1] came to 0%.

For the compound galactose, the “Substrate specificity (relative activity)” value in assay [1] came out at 0%.

On to mannose, for which the “Substrate specificity (relative activity)” value in assay [1] amounted to 0%.

For the compound glucose, in assay [1], the “Substrate specificity (relative activity)” value turned out to be 0%.

Consider `NC(=O)c1ccc[n+]([C@@H]2O[C@H](COP(=O)([O-])OP(=O)(O)OC[C@H]3O[C@@H](n4cnc5c(N)ncnc54)[C@H](OP(=O)(O)O)[C@@H]3O)[C@@H](O)[C@H]2O)c1` [NADP, nicotinamide adenine dinucleotide phosphate], for which, in assay [2] (reaction of NADP and myo-inositol, read-out: Km-value (NADP)), the Km stood at 190 µM.

For the compound `NC(=O)c1ccc[n+]([C@@H]2O[C@H](COP(=O)([O-])OP(=O)(O)OC[C@H]3O[C@@H](n4cnc5c(N)ncnc54)[C@H](O)[C@@H]3O)[C@@H](O)[C@H]2O)c1` [NAD, nicotinamide adenine dinucleotide], the Km in assay [4] (read-out: Km value for NAD) is ~70 µM.

Consider `OC[C@H]1O[C@@H](O[C@H]2[C@H](O)[C@@H](O)C(O)O[C@@H]2CO)[C@H](O)[C@@H](O)[C@H]1O` (stereo partly drawn) [lactose], for which the “Substrate specificity (relative activity)” value in assay [1] is 0%.

Turning to `OC[C@@H](O)[C@@H](O)[C@H](O)[C@@H](O)CO` [sorbitol], the “Substrate specificity (relative activity)” value in assay [1] was found to be 0%.

In the case of `NC(=S)c1ccc[n+]([C@@H]2O[C@H](COP(=O)([O-])OP(=O)(O)OC[C@H]3O[C@@H](n4cnc5c(N)ncnc54)[C@H](OP(=O)(O)O)[C@@H]3O)[C@@H](O)[C@H]2O)c1` [thio-NADP, thionicotinamide adenine dinucleotide phosphate], in assay [2] (reaction of thio-NADP and myo-inositol, read-out: Km-value (thio-NADP)), the Km was 2540 µM.

On to `O[C@H]1[C@H](O)[C@@H](O)[C@H](O)[C@@H](O)[C@H]1O` [myo-inositol], for which, in assay [1], the “Substrate specificity (relative activity)” value worked out at 100%. Besides, the Km in assay [4] (read-out: Km value for myo-inositol) is ~11000 µM; in assay [2] (coenzyme 1 mM NAD, Tris-HCl buffer pH 8.5, read-out: Km-value (myo-inositol)), 640 µM and ~600 µM; in assay [2] (coenzyme 1 mM thio-NAD, read-out: Km-value (myo-inositol)) it was 10000 µM; in assay [2] (reaction of NADP and myo-inositol, read-out: Km-value (myo-inositol)), 30900 µM.

For `OC[C@H]1O[C@@](CO)(O[C@H]2O[C@H](CO)[C@@H](O)[C@H](O)[C@H]2O)[C@@H](O)[C@@H]1O` [saccharose], the “Substrate specificity (relative activity)” value in assay [1] is given as 0%.

The record behind these values is patent US5356790A, “Highly sensitive assay method for myo-inositol, composition for practicing same, novel myo-inositol dehydrogenase, and process for producing same” (Asahi Kasei Kogyo Kabushiki Kaisha, priority 1990, dated 1994).
